This is an account of results in patent publication US20230255930A1, “METHOD OF INCREASING THE POPULATION OF COPROCOCCUS SPP. IN THE GUT MICROBIOME” (priority 2020, published 2023).

The subject of experiment [1] is Coprococcus. Description: In vitro intestinal batch fermentation with human fecal suspension; 16S rRNA Illumina sequencing. In kind it is cell-based. The following applies: fermentation supernatant at 24 h, versus control. The method, then: At the start of this intestinal batch fermentation incubation, all test ingredients were added from stock solutions to the modified nutritional medium, containing (g/l): 2.5 K2HPO4, 10.9 KH2PO4, 2 NaHCO3, 2 yeast extract, 2 peptone, 1 mucin, 0.5 cysteine, 2 Tween 80, 2 glucose, 2 starch, 2 cellobiose, 0.1 NaCl, 0.01 MgSO4.7H2O, 0.01 CaCl2.6H2O, 0.05 hemin, 0.5 bile salts.
The following compounds were added from stock solutions prepared in water: • Beta-carotene, • Vitamin B3, • Vitamin B5, • Vitamin B7, • Fructooligosaccharides Fructooligosaccharides are included as a positive control.
As a source of the microbial community, freshly prepared fecal suspension from a human donor was added to the reactors. […] All tests, except the blanks, were performed in single repetition. Incubation conditions were 48 h at 37° C., under shaking (90 rpm) and anaerobic conditions.
Microbial composition: Illumina sequencing was performed at the start and after 24 h of incubation. The technique targets the16S rRNA gene that consists of variable and conserved regions, spread over the gene. Due to their key role in protein expression, the conserved regions are characterized by very low evolutionary rates.
The methodology applied involves primers that span 2 hypervariable regions (V3-V4) of the 16S rRNA gene. Using a pair-end sequencing approach, sequencing of 2×250 bp results in 424 bp amplicons. Such fragments are taxonomically more informative as compared to smaller fragments. In brief, mothur (v. 1.42.0) was used to assemble reads into contigs, perform alignment-based quality filtering (alignment to the mothur-reconstructed SILVA SEED alignment, v. 123), remove chimeras, assign taxonomy using a naïve Bayesian classifier and SILVA NR v132 and cluster contigs into OTUs. All sequences classified as Eukaryota, Archaea, Chloroplasts and Mitochondria were removed, as well as sequences that could not be classified. For each OTU, representative sequences were selected as the most abundant sequence within that OTU.

Experiment [2] relates to Coprococcus. Kind of experiment: Clinical study of colon-targeted vitamins; fecal relative abundance of Coprococcus by shotgun metagenomics. The following applies: human feces, colon-targeted delivery for four weeks, compared to baseline. In kind it is in vivo.
Text: Twelve participants were allocated to each of the six vitamin groups, and 24 participants allocated to the placebo group. […] To be considered eligible for enrolment into the study, participants have to be able to give written informed consent; be aged between 20 and 50 years of age; have a BMI of between 18.5 - 30 Kg/m2; have a stable body weight (< 5% change) over the past 3-months; be in generally good health, as determined by the investigator; have not consumed dietary supplements, prebiotic, probiotic, dietary or fiber-rich supplements within 4 weeks prior to baseline visit and be willing to avoid these supplements until the end of the study; be willing to avoid liver consumption for the duration for the study, be willing to maintain their current level of physical activity for the duration of the study; and be willing to consume the IP daily for the duration of the study. Any participants who have a typical fiber intake >30 g/day; were pregnant or planning to become pregnant, have consumed disallowed medications; had made major dietary changes over the past three months or had planned major lifestyle changes; had taken part in a study within the previous 60 days; or had any ongoing or previous illness that the investigator deemed would impact on the objectives of the study were excluded. […] Each subject provided written informed consent before inclusion in the study.
At the final visit (Visit 3) participants retuned a fecal samples collected in the previous 48 hours. […] Participants returned their IP and compliance was assessed. […]
For a further experiment, the system named is Coprococcus comes. Kind of experiment: Clinical study of colon-targeted vitamins; fecal relative abundance of Coprococcus comes by shotgun metagenomics. In kind it is in vivo. Conditions: human feces, colon-targeted delivery for four weeks. The text has this: Twelve participants were allocated to each of the six vitamin groups, and 24 participants allocated to the placebo group. All 96 participants completed the intervention. To be considered eligible for enrolment into the study, participants have to be able to give written informed consent; be aged between 20 and 50 years of age; have a BMI of between 18.5 - 30 Kg/m2; have a stable body weight (< 5% change) over the past 3-months; be in generally good health, as determined by the investigator; have not consumed dietary supplements, prebiotic, probiotic, dietary or fiber-rich supplements within 4 weeks prior to baseline visit and be willing to avoid these supplements until the end of the study; be willing to avoid liver consumption for the duration for the study, be willing to maintain their current level of physical activity for the duration of the study; and be willing to consume the IP daily for the duration of the study. […]
The trial was a randomized, double-blind, placebo-controlled, parallel study in which subjects received either the vitamin supplement or placebo over four weeks. […] Before the randomization visit, participants food frequency questionnaires were analyzed to ensure their typical fiber intake is <30 g fiber/day. […]
At the baseline visit (Visit 2), participants retuned a fecal samples collected in the previous 48 hours and eligibility was assessed. […]

`CC1=C(/C=C/C(C)=C/C=C/C(C)=C/C=C/C=C(C)/C=C/C=C(C)/C=C/C2=C(C)CCCC2(C)C)C(C)(C)CCC1` [beta-carotene, β-carotene]: the Coprococcus relative abundance entry in the experiment with Coprococcus [1] (dose 1x) and in the experiment on Coprococcus [1] (dose 5x) was “increased” each time.

For `NC(=O)c1cccnc1` [vitamin B3, Niacinamide], the Coprococcus relative abundance entry in the experiment with Coprococcus [1] (doses 0.2x, 1x, 5x tested) is on record as “no distinct increase”.

Consider `CC(C)(CO)[C@@H](O)C(=O)NCCC(=O)O` [vitamin B5, Pantothenic acid], for which the Coprococcus relative abundance result with Coprococcus [1] (dose 0.2x) and in the experiment with Coprococcus [1] (dose 5x) was “increased” throughout.

As to `O=C(O)CCCC[C@@H]1SC[C@@H]2NC(=O)N[C@@H]21` [vitamin B7, Biotin], in the experiment on Coprococcus [1] (doses 0.2x, 1x, 5x tested), the Coprococcus relative abundance entry is “no distinct increase”.

`O=C1O[C@H]([C@@H](O)CO)C(O)=C1O` [vitamin C, ascorbic acid]: the “relative abundance of Coprococcus” value in the experiment with Coprococcus [2] was “not”.

Turning to `C=C1CC[C@H](O)C/C1=C/C=C1\CCC[C@]2(C)[C@@H]([C@H](C)CCCC(C)C)CC[C@@H]12` [vitamin D3, cholecalciferol], the “relative abundance of Coprococcus” value with Coprococcus [2] is on record as “trends for an increase”. In addition, the “Coprococcus comes relative abundance” value in the experiment with Coprococcus comes (compared to baseline (p = 0.04)) and in the experiment with Coprococcus comes (compared to placebo group (p = 0.028)) was “significant increase” throughout.

Regarding vitamin A, the “relative abundance of Coprococcus” value in the experiment on Coprococcus [2] is listed as “trends for an increase”.
